Source: ChEMBL document CHEMBL1201862, “PubChem BioAssay data set” (2004)
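Results reflect a 48-hour exposure of cells in 96-well plates to compound at five concentrations. GI50 is the concentration that inhibits growth by half.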 The source made the active and inactive calls. No stated cut-off is given here; in the data, active = GI50 up to about 1.1 µM and inactive = higher. Where a SMILES comes first, the peptide text is derived from it. The star is where a group is joined. Cbz = O=C(OCc1ccccc1)*

How the values were obtained:
Test in all cases: NCI anticancer screen, dose series, 48 h
786-0 = tested on: 786-0
A498 = tested on: A498
A549 = tested on: A549
EKVX = tested on: EKVX
HCT-116 = tested on: HCT-116
HOP-62 = tested on: HOP-62
KM12 = tested on: KM12
MOLT-4 = tested on: MOLT-4
Malme-3M = tested on: Malme-3M
RPMI-8226 = tested on: RPMI-8226
SF-295 = tested on: SF-295
SF-539 = tested on: SF-539
SK-MEL-2 = tested on: SK-MEL-2
SR = tested on: SR
TK-10 = tested on: TK-10
U-251 = tested on: U-251
UACC-62 = tested on: UACC-62
MDA-MB-231 = tested on: MDA-MB-231
MDA-MB-435 = tested on: MDA-MB-435
MDA-N = tested on: MDA-N

Measured: GI50

CCOC(=O)C1Cc2ccc3c4c(ccc(c24)C1)CC(C(=O)OCC)C3
inactive: 786-0 > 100 µM | A498 > 100 µM | A549 > 100 µM | EKVX > 100 µM | HCT-116 > 100 µM | HOP-62 > 100 µM | KM12 > 100 µM | MOLT-4 > 100 µM | Malme-3M > 100 µM | RPMI-8226 > 100 µM | SF-295 > 100 µM | SF-539 > 100 µM | SK-MEL-2 > 100 µM | SR > 100 µM | TK-10 > 100 µM | U-251 > 100 µM | UACC-62 > 100 µM

Nc1ccc(S(=O)(=O)Nc2nnc(S(N)(=O)=O)s2)cc1
inactive: 786-0 > 100 µM | A498 > 100 µM | A549 > 100 µM | EKVX > 100 µM | HCT-116 > 100 µM | KM12 > 100 µM | MDA-MB-231 > 100 µM | MDA-MB-435 > 100 µM | MOLT-4 > 100 µM | Malme-3M > 100 µM | RPMI-8226 > 100 µM | SF-295 > 100 µM | SF-539 > 100 µM | SR > 100 µM | TK-10 > 100 µM | U-251 > 100 µM | UACC-62 > 100 µM

NC(=O)c1c2c(n3ccccc13)C(=O)c1ccccc1C2=O
inactive: 786-0 71.8 µM | A498 > 100 µM | EKVX > 100 µM | HCT-116 > 100 µM | HOP-62 30.2 µM | KM12 > 100 µM | MDA-MB-231 38.5 µM | MDA-MB-435 20.2 µM | MOLT-4 > 100 µM | RPMI-8226 > 100 µM | SF-295 29 µM | SF-539 39.6 µM | SK-MEL-2 32.3 µM | SR > 100 µM | TK-10 > 100 µM | U-251 39.6 µM | UACC-62 68.2 µM

COc1cc2c(cc1OC)C1(c3ccccc3)ON=C(c3ccccc3)N1CS2 (stereo unspecified)
inactive: 786-0 > 100 µM | A498 > 100 µM | A549 > 100 µM | EKVX > 100 µM | HCT-116 28.7 µM | HOP-62 > 100 µM | KM12 > 100 µM | MOLT-4 16.1 µM | Malme-3M > 100 µM | RPMI-8226 67.6 µM | SF-295 60.1 µM | SF-539 > 100 µM | SK-MEL-2 > 100 µM | SR 23.6 µM | TK-10 > 100 µM | U-251 > 100 µM | UACC-62 45.8 µM

CC(=O)NC(NCCN)(c1ccccc1)c1ccccc1
inactive: 786-0 > 100 µM | A498 59.4 µM | A549 > 100 µM | EKVX > 100 µM | HCT-116 > 100 µM | HOP-62 > 100 µM | KM12 > 100 µM | MDA-MB-231 > 100 µM | MDA-MB-435 > 100 µM | MOLT-4 > 100 µM | Malme-3M > 100 µM | RPMI-8226 > 100 µM | SF-295 > 100 µM | SF-539 > 100 µM | SR > 100 µM | TK-10 > 100 µM | U-251 > 100 µM

CC(=O)OC1CC2C(C)(C)C(=O)C=CC2(C)C2CCC3(C)C(c4ccoc4)OC(=O)C4OC43C12C (stereo unspecified)
inactive: 786-0 9.46 µM | A498 24.9 µM | A549 7.66 µM | EKVX 22.5 µM | HCT-116 2.4 µM | HOP-62 26 µM | KM12 3.92 µM | MDA-MB-231 3.85 µM | MDA-MB-435 3.27 µM | MOLT-4 8.2 µM | RPMI-8226 2.64 µM | SF-295 14.6 µM | SF-539 6.55 µM | SK-MEL-2 13 µM | TK-10 95.1 µM | U-251 6.14 µM | UACC-62 5.37 µM

Cc1n[nH]c(=O)n1/N=C/c1ccc([N+](=O)[O-])o1
inactive: 786-0 15.1 µM | A498 22.1 µM | A549 16.7 µM | EKVX 17.5 µM | HCT-116 8.39 µM | HOP-62 26.9 µM | KM12 13.7 µM | MDA-MB-231 18.2 µM | MDA-MB-435 5.3 µM | MOLT-4 5.7 µM | Malme-3M 4.65 µM | RPMI-8226 15.7 µM | SF-295 25.8 µM | SF-539 19.1 µM | SK-MEL-2 14.2 µM | TK-10 18.1 µM | U-251 21.7 µM | UACC-62 13.1 µM

CCOC(=O)N/N=C(\CC)OCC
inactive: 786-0 > 100 µM | A549 > 100 µM | EKVX > 100 µM | HCT-116 > 100 µM | HOP-62 > 100 µM | KM12 > 100 µM | MDA-MB-231 > 100 µM | MDA-N > 100 µM | MOLT-4 > 100 µM | Malme-3M > 100 µM | SF-295 > 100 µM | SF-539 > 100 µM | SK-MEL-2 > 100 µM | SR > 100 µM | TK-10 > 100 µM | UACC-62 > 100 µM

CC(C)(C)OC(=O)N1C[C@H](CC(=O)OCc2ccccc2)C[C@H]1C(=O)OCC(Cl)(Cl)Cl
inactive: 786-0 5.96 µM | A498 3.44 µM | A549 4.69 µM | EKVX 2.78 µM | HCT-116 3.88 µM | HOP-62 22.8 µM | KM12 2.76 µM | MDA-MB-231 11.3 µM | MDA-MB-435 5.31 µM | MOLT-4 1.19 µM | Malme-3M 6.28 µM | SF-295 2.38 µM | SF-539 14.5 µM | SK-MEL-2 6.7 µM | SR 2.04 µM | TK-10 15.9 µM | U-251 2.56 µM | UACC-62 5.6 µM

O=C(Nc1ccc(Sc2ccc(/N=N/c3c(O)c(S(=O)(=O)O)cc4cc(S(=O)(=O)O)ccc34)cc2)cc1)c1ccc(/N=N/c2c(O)ccc3c(S(=O)(=O)O)cc(S(=O)(=O)O)cc23)cc1
inactive: 786-0 37.6 µM | A498 26 µM | A549 28.4 µM | EKVX 17.3 µM | HCT-116 49.3 µM | HOP-62 87.3 µM | KM12 39.9 µM | MOLT-4 12.8 µM | Malme-3M 24.9 µM | RPMI-8226 10.4 µM | SF-295 62.7 µM | SF-539 46.9 µM | SK-MEL-2 27.9 µM | SR 21.6 µM | TK-10 60.8 µM | U-251 41.2 µM | UACC-62 16.9 µM

CCCCCCCCCCCCC(CC)CCCCC(=O)O (stereo unspecified)
inactive: 786-0 31.8 µM | A498 > 100 µM | A549 > 100 µM | EKVX > 56.2 µM | HCT-116 > 53.1 µM | HOP-62 > 100 µM | KM12 > 100 µM | MOLT-4 27 µM | Malme-3M > 100 µM | RPMI-8226 > 56.4 µM | SF-295 > 100 µM | SF-539 > 44.6 µM | SK-MEL-2 > 100 µM | SR > 53.2 µM | TK-10 > 100 µM | U-251 > 47.6 µM | UACC-62 > 100 µM

O=S(=O)(/N=C(\NO)Nc1ccc(Cl)cc1)c1cccc2nsnc12
inactive: 786-0 21.6 µM | A549 45.5 µM | EKVX 26.2 µM | HCT-116 32 µM | HOP-62 > 100 µM | KM12 31 µM | MDA-MB-231 77.1 µM | MDA-MB-435 23 µM | MDA-N 54.1 µM | MOLT-4 12.8 µM | Malme-3M 21.2 µM | SF-295 57.9 µM | SF-539 59.3 µM | SK-MEL-2 16.4 µM | TK-10 55.7 µM | U-251 31.6 µM | UACC-62 21.6 µM

CC1=NCC[N+]1(CCc1ccccc1)Cc1ccccc1 (stereo unspecified)
inactive: 786-0 > 100 µM | A498 60.3 µM | A549 13.4 µM | EKVX > 100 µM | HCT-116 49 µM | HOP-62 > 100 µM | KM12 47.2 µM | MDA-MB-231 62.4 µM | MDA-N 46.3 µM | Malme-3M 20.4 µM | RPMI-8226 13.7 µM | SF-295 > 100 µM | SK-MEL-2 27.7 µM | SR 13.4 µM | TK-10 48.1 µM | U-251 29.3 µM | UACC-62 75.2 µM

O=C(O)Cc1ccc(Oc2nc3ccccc3nc2-c2ccccc2)cc1
inactive: 786-0 > 100 µM | A498 > 100 µM | A549 57.8 µM | EKVX 27.7 µM | HCT-116 85.7 µM | HOP-62 > 100 µM | KM12 60.5 µM | MDA-MB-231 58.1 µM | MDA-MB-435 86.1 µM | MOLT-4 86.9 µM | Malme-3M 65.8 µM | RPMI-8226 66.8 µM | SF-295 79.4 µM | SF-539 60.5 µM | SK-MEL-2 70 µM | SR 4.22 µM | TK-10 97.9 µM | U-251 56.2 µM | UACC-62 24.9 µM

COc1ccc(CN(O)C2C(CO)OC(n3cc(I)c(=O)[nH]c3=O)C2O)cc1 (stereo unspecified)
inactive: 786-0 > 100 µM | A498 > 100 µM | A549 > 100 µM | EKVX > 100 µM | HCT-116 > 100 µM | HOP-62 > 100 µM | KM12 > 100 µM | MOLT-4 > 100 µM | Malme-3M > 100 µM | RPMI-8226 > 100 µM | SF-295 > 100 µM | SF-539 > 100 µM | SK-MEL-2 > 100 µM | SR > 100 µM | TK-10 > 100 µM | U-251 > 100 µM | UACC-62 > 100 µM

CCOC(=O)CNC(=O)C(C)NC(=O)C(NC(=O)OCc1ccccc1)C(C)C (stereo not drawn) (Cbz-Val-Ala-Gly-OEt; configuration not given here)
inactive: 786-0 > 100 µM | A549 > 100 µM | EKVX > 100 µM | HCT-116 > 100 µM | HOP-62 > 100 µM | KM12 > 100 µM | MDA-MB-435 > 100 µM | MDA-N > 100 µM | MOLT-4 32 µM | Malme-3M > 100 µM | RPMI-8226 > 100 µM | SF-295 > 100 µM | SF-539 > 100 µM | SK-MEL-2 77.8 µM | SR > 100 µM | TK-10 > 100 µM | U-251 > 100 µM | UACC-62 > 100 µM
